Common to all, as to format: cell-based
The subject of assay [1] is PEC. In words: Proliferation assay (Ki67 staining, flow cytometry). To be noted: PDGF-BB stimulation. As to the method: To assess cell proliferation, we used the nuclear antigen Ki67 staining. After overnight starvation in ECBM+1% FBS, cells were treated 24 hours with PDGF-BB (10 ng/mL) or HBEGF (20 ng/mL) or corresponding controls. Cells were then trypsinized and washed in cold PBS. Supernatants were kept and included in analysis. After centrifugation, cells were permeabilized with 1 mL of ice-cold ethanol for 2 h at −20° C. Following two washes with FACS buffer (HBSS, 2% FBS and 10 mM HEPES), cells were stained for 30 min at room temperature in the dark with phycoerythrin (PE)-conjugated anti-human Ki67 mAb (clone B56) (BD Pharmingen) and washed. Samples were analyzed on a BD LSRII flow cytometer (BD Bioscience). An isotype control staining with PE mouse IgG1 was performed. Data were analyzed using FlowJo software (FlowJo, LLC).
On the technique in general: In flow cytometry, cells or beads pass a laser one at a time.

For assay [2], the system named is PEC. In words: Cell migration in IBIDI chambers (scratch assay). To be noted: scratch assays, growth factor stimulation. The protocol:
Unoriented migration assay was performed using IBIDI chambers (Culture-Insert 2 Well in μ-Dish 35 mm, high ibiTreat, n° 81176). After confluence was obtained, PECs were grown in ECBM without supplements with FBS 1% overnight. The insert was then removed creating a gap of 500 μm between cells. A first round of photographs was taken (HO), shortly after cells were stimulated with either ECBM without supplements with FBS 1% (control), or with HB-EGF 10 ng/mL, or with PDGF-BB 10 ng/mL. Photographs were taken every 30 min for 12 h. Areas of migration were measured by automatic quantification on NIS-Elements AR software.

In the next assay the test system is PDGFRβ. In words: Western blot of PDGFRβ phosphorylation in PEC. The note with it: PEC stimulated with PDGF-BB. As to the method: PEC lysates were prepared with RIPA extraction buffer containing phosphatase inhibitors and protease inhibitors (Roche). Equal amounts of proteins were loaded onto sodium dodecyl sulfate-polyacrylamide electrophoresis gels for separation and transferred onto poly(vinylidene difluoride) membranes. The membranes were blocked with milk and probed with different antibodies: rat anti-CD9 (BD Pharminogen, 553758, 1:1000), rabbit anti-phospho-PDGF receptor-β Y1009 (Cell Signaling Technology, 4549; 1:1000), rabbit anti-PDGFRB (Cell Signaling, 3169; 1:1000), rabbit anti-integrin […] (Millipore, 04-1109, 1:1000), rabbit anti-CASP3 (Cell Signaling Technology, 9662; 1:1000), rabbit anti-phospho EGFR Y1068 (Cell Signaling Technology, 2234; 1:1000), rabbit anti EGFR (Cell Signaling Technology, 2232; 1:1000), rabbit anti-phospho-FAK Y397 (Cell Signaling 3283, 1:1000), rabbit anti-FAK (Millipore, 06-543,1:1000). Membranes were then probed with horseradish peroxidase-conjugated secondary antibodies (Cell Signaling Technology, 7074 and 7076; 1:2000; Jackson Immunoresearch, 706-036-148; 1:1000) and bands were visualized by enhanced chemiluminescence (Clarity Western ECL substrate; Bio-Rad, 170-5061). A LAS-4000 imaging system (Fuji, LAS4000, Burlington, N.J., USA) was used to reveal bands and densitometric analysis was used for quantification.
(Immunoblotting shows a protein as a band on a membrane.)

In the case of “PDGF-BB: growth factor used to stimulate PECs”, in the assay with PEC [1], the “PEC proliferation (number of KI67+ cells)” value was “induced PEC proliferation”. For the same molecule, the PEC migration entry in the assay with PEC [2] is recorded as “induced PEC migration”. Further, the PDGFRβ phosphorylation result in the assay with PDGFRβ is “induced a rapid and transient PDGFRβ phosphorylation”.

B1: HB-EGF: growth factor used to stimulate PECs (protein, UniProt Q99075 63-148, looked up)
Heparin-binding EGF-like …: DLQEADLDLLRVTLSSKPQALATPNKEEHGKRKKKGKGLGKKRDPCLRKYKDFCIHGECKYVKELRAPSCICHPGYHGERCHGLSL
In the case of B1, the PEC migration entry with PEC [2] is listed as “induced PEC migration”.

The values above are taken from US12523663B2, “Use of CD9 as a biomarker and as a biotarget in glomerulonephritis or glomerulosclerosis” (INSERM (INSTITUT NATIONAL DE LA SANTÉ ET DE LA RECHERCHE …, priority 2019, dated 2026).
